{"source": "paper PMC9203742", "about": "(Nature Communications, 2022)", "type_in_all_cases": "cell-based, mouse", "key": {"[1]": {"test_system": "GFP-positive Purkinje cells infected with AAV-L7-mGlu1^CBC", "test": "chemLTD recording in GFP-positive Purkinje cells, slices infected with AAV-L7-mGlu1^CBC", "settings": "AAV-L7-mGlu1CBC"}, "[2]": {"test_system": "MLIs infected with AAV-hSyn-mGlu1^CBC", "test": "sAP-mediated currents (firing rate) of MLIs infected with AAV-hSyn-mGlu1^CBC", "settings": "10 μM Pd(sulfo-bpy); P = 4.613 × 10^–5", "procedure": "(§1) To monitor the excitability of MLIs, sAP-mediated current responses were extracellulary recorded by a loose cell-attached voltage-clamp at a holding potential of 0 mV. Glass electrodes used for cell-attached recordings had resistances of 3–5 MΩ when filled with ACSF. The current recordings from AAV-infected cells were performed 1−2 weeks after infection. The EPSCs and sAP-mediated currents were recorded using an Axopatch 200B amplifier (Molecular Devices), and the pClamp system (version 9.2; Molecular Devices) was used for data acquisition and analysis. The signals were filtered at 1 kHz and digitized at 4 kHz for the evoked EPSCs and 10 kHz for the sAP-mediated currents.\n(§2) Injection of viral solutions was performed as described previously with slight modifications. Briefly, under deep anesthesia, with an intraperitoneal injection of medetomidine (0.3 mg/kg), midazolam (4.0 mg/kg), and butorphanol (5.0 mg/kg), 4 µL of the solutions containing AAV mixture were directly injected into the vermis of cerebellar lobules V-VIII (200-300 µm in depth, 12 µL/h in rate) of WT mice (C57BL/6J, P20-P30) using glass pipette (30–40 µm in diameter) and microinjector (Nanoliter; World Precision Instruments). In all, 1−2 week after injection, the mice were used for each experiment."}, "[3]": {"test_system": "Purkinje cells in cerebellar slices from mGlu1^CBC/CBC mice", "test": "chemLTD recording (PF-EPSC) in Purkinje cells of acute cerebellar slices, mGlu1^CBC/CBC mice", "settings": "for PF-EPSC amplitude relative to time 0: mGlu1CBC/CBC, individual cells", "procedure": "(§3) Sagittal cerebellar slices were cut with a microslicer (Linear slicer Pro7; DOSAKA EM) in cutting solution buffer and then incubated in ACSF gassed with 5% CO2 and 95% O2 at room temperature.\n(§4) Whole-cell patch-clamp recordings were made from visually identified Purkinje cells using a 60× water-immersion objective attached to an upright microscope (BX51WI, Olympus) at room temperature, as described previously. […] Picrotoxin (100 µM; Sigma) was always added to the saline to block inhibitory synaptic transmission.\n(§5) To evoke EPSCs derived from CF (CF-EPSCs) and PF (PF-EPSCs) inputs onto Purkinje cells, square pulses were applied through a stimulating electrode placed on the granular layer and the molecular layer (50 µm away from the pial surface), respectively. The selective stimulation of CFs and PFs was confirmed by the paired-pulse depression (PPD) and paired-pulse facilitation (PPF) of EPSC amplitudes at a 50-ms interstimulus interval (ISI), respectively.\n(§6) For the LTD sessions, PF-EPSCs were recorded successively at a frequency of 0.1 Hz from Purkinje cells clamped at –80 mV. After a stable PF-EPSC amplitude had been observed for at least 5 min, a conjunctive stimulation that consisted of 30 single PF stimuli together with a 200 ms depolarizing pulse from a holding potential of –60 to +20 mV was applied for LTD induction.\n(§7) To chemically induce LTD (chemLTD), 50 µM (S)-3,5-dihydroxyphenylglycine (DHPG) or 1 µM Pd(sulfo-bpy) was applied for 10 min in a current-clamp mode. We often observed a transient decrease in PF-EPSC amplitude after the application of each drug probably because Purkinje cells under current-clamp conditions excite spontaneously to suppress presynaptic function through the retrograde signaling. Access resistances were monitored every 10 s by measuring the peak currents in response to 2 mV, 50-ms hyperpolarizing steps throughout the experiments; the measurements were discarded if the resistance changed by >20% of its original value. The normalized EPSC amplitude on the ordinate represents the EPSC amplitude for the average of six traces for 1 min divided by that of the average of six traces for 1 min immediately before the conjunctive stimulation or the drug application."}, "[4]": {"test_system": "MLIs surrounded by mGlu1(N264H)-expressing Purkinje cells (AAV-L7-mGlu1^CBC)", "test": "sAP-mediated currents (firing rate) of MLIs in slices infected with AAV-L7-mGlu1^CBC", "settings": "10 μM Pd(sulfo-bpy); P = 0.293", "procedure": "as §1, §2"}, "[5]": {"test_system": "Purkinje cells in cerebellar slices from mGlu1^CBC/+ mice", "test": "chemLTD recording (PF-EPSC) in Purkinje cells of acute cerebellar slices, mGlu1^CBC/+ mice", "settings": "for PF-EPSC amplitude relative to time 0: mGlu1CBC/+, individual cells", "procedure": "as §3, §4, §5, §6, §7"}, "[6]": {"settings": "1 μM Pd(sulfo-bpy) for 10 min, t = 31−35 min"}}, "note": "Several values for one entry are separate records, joined by “and”; a condition that tells them apart may be missing. Equal entries are not always repeated.", "data": [{"smiles": "Cc1ccnc(-c2cc(COCCCS(=O)(=O)[O-])ccn2)c1.[Cl][Pd][Cl].[Na+]", "note": "[Pd(sulfo-bpy)]", "values": [{"measurement": "PF-EPSC amplitude normalized to time 0, mean of cells", "setting": "[1]; Time 28 min", "value": 0.6908}, {"measurement": "PF-EPSC amplitude normalized to time 0, mean of cells", "setting": "[1]; Time 29 min", "value": 0.7115}, {"measurement": "PF-EPSC amplitude normalized to time 0, mean of cells", "setting": "[1]; Time 30 min", "value": 0.7}, {"measurement": "PF-EPSC amplitude normalized to time 0, mean of cells", "setting": "[1]; Time 31 min", "value": 0.6852}, {"measurement": "PF-EPSC amplitude normalized to time 0, mean of cells", "setting": "[1]; Time 32 min", "value": 0.6868}, {"measurement": "PF-EPSC amplitude normalized to time 0, mean of cells", "setting": "[1]; Time 33 min", "value": 0.6788}, {"measurement": "PF-EPSC amplitude normalized to time 0, mean of cells", "setting": "[1]; Time 34 min", "value": 0.6319}, {"measurement": "PF-EPSC amplitude normalized to time 0, mean of cells", "setting": "[1]; Time 35 min", "value": 0.6255}, {"measurement": "Firing rate of MLIs", "setting": "[2]", "value": "increased the firing rate"}, {"measurement": "chemLTD: normalized PF-EPSC amplitude", "setting": "[3]; [6]", "value": "71 ± 5", "unit": "%"}, {"measurement": "PF-EPSC amplitude relative to time 0", "setting": "[3]; time 11 min", "value": "0.6364 and 0.5841 and 0.6893 and 0.9073 and 0.8328 and 0.7699 and 0.718 and 0.7562 and 0.9988 and 0.8349 and 0.5757"}, {"measurement": "PF-EPSC amplitude relative to time 0", "setting": "[3]; time 12 min", "value": "0.827 and 0.5867 and 0.7148 and 0.9371 and 0.7788 and 0.6794 and 0.7449 and 0.7226 and 1.01 and 0.7931 and 0.6087"}, {"measurement": "PF-EPSC amplitude relative to time 0", "setting": "[3]; time 13 min", "value": "0.8172 and 0.6851 and 0.7171 and 1.091 and 0.7809 and 0.6502 and 0.6746 and 0.5919 and 1.019 and 0.8421 and 0.5537"}, {"measurement": "PF-EPSC amplitude relative to time 0", "setting": "[3]; time 14 min", "value": "0.7882 and 0.6733 and 0.6788 and 1.041 and 0.7381 and 0.6557 and 0.5543 and 0.7541 and 0.9808 and 0.752 and 0.5358"}, {"measurement": "PF-EPSC amplitude relative to time 0", "setting": "[3]; time 15 min", "value": "0.7548 and 0.7484 and 0.6382 and 0.9601 and 0.7893 and 0.6974 and 0.5323 and 0.7206 and 0.9958 and 0.7333 and 0.563"}, {"measurement": "PF-EPSC amplitude relative to time 0", "setting": "[3]; time 16 min", "value": "0.7642 and 0.6145 and 0.7007 and 0.8597 and 0.792 and 0.6967 and 0.6481 and 0.669 and 0.9606 and 0.6776 and 0.562"}, {"measurement": "PF-EPSC amplitude relative to time 0", "setting": "[3]; time 17 min", "value": "0.7633 and 0.6552 and 0.685 and 0.991 and 0.7793 and 0.8388 and 0.6612 and 0.7158 and 1.026 and 0.669 and 0.5661"}, {"measurement": "PF-EPSC amplitude relative to time 0", "setting": "[3]; time 18 min", "value": "0.7518 and 0.6433 and 0.6556 and 0.9807 and 0.8623 and 0.726 and 0.6303 and 0.6396 and 0.9248 and 0.6931 and 0.5685"}, {"measurement": "PF-EPSC amplitude relative to time 0", "setting": "[3]; time 19 min", "value": "0.7866 and 0.7223 and 0.6298 and 1.039 and 0.7923 and 0.7732 and 0.6413 and 0.6754 and 1.015 and 0.7024 and 0.4513"}, {"measurement": "PF-EPSC amplitude relative to time 0", "setting": "[3]; time 20 min", "value": 0.7361}, {"measurement": "Firing rate of MLIs", "setting": "[4]", "value": "failed to increase"}, {"measurement": "chemLTD: normalized PF-EPSC amplitude", "setting": "[5]; [6]", "value": "68 ± 5", "unit": "%"}, {"measurement": "PF-EPSC amplitude relative to time 0", "setting": "[5]; time 11 min", "value": "0.4686 and 0.63 and 0.9877 and 0.796 and 0.8663 and 0.8992 and 0.747 and 0.5935"}, {"measurement": "PF-EPSC amplitude relative to time 0", "setting": "[5]; time 12 min", "value": "0.5628 and 0.6446 and 0.9391 and 0.713 and 0.7198 and 0.9003 and 0.6921 and 0.7152"}, {"measurement": "PF-EPSC amplitude relative to time 0", "setting": "[5]; time 13 min", "value": "0.621 and 0.6377 and 0.8863 and 0.7092 and 0.7439 and 0.8712 and 0.699 and 0.7447"}, {"measurement": "PF-EPSC amplitude relative to time 0", "setting": "[5]; time 14 min", "value": "0.6095 and 0.6409 and 0.8383 and 0.7009 and 0.7151 and 0.836 and 0.6833 and 0.8191"}, {"measurement": "PF-EPSC amplitude relative to time 0", "setting": "[5]; time 15 min", "value": "0.6012 and 0.6741 and 0.9189 and 0.6721 and 0.6888 and 0.8836 and 0.7293 and 0.8645"}, {"measurement": "PF-EPSC amplitude relative to time 0", "setting": "[5]; time 16 min", "value": "0.5331 and 0.6806 and 0.916 and 0.7015 and 0.697 and 0.7978 and 0.7054 and 0.8737"}, {"measurement": "PF-EPSC amplitude relative to time 0", "setting": "[5]; time 17 min", "value": "0.5491 and 0.6542 and 0.8424 and 0.6962 and 0.6712 and 0.7371 and 0.6859 and 0.9232"}, {"measurement": "PF-EPSC amplitude relative to time 0", "setting": "[5]; time 18 min", "value": "0.5728 and 0.6898 and 0.851 and 0.7066 and 0.6167 and 0.9345 and 0.6617 and 0.9653"}, {"measurement": "PF-EPSC amplitude relative to time 0", "setting": "[5]; time 19 min", "value": "0.6147 and 0.6344 and 0.8403 and 0.7161 and 0.6281 and 0.877 and 0.663 and 0.9646"}, {"measurement": "PF-EPSC amplitude relative to time 0", "setting": "[5]; time 20 min", "value": "0.6536 and 0.6214 and 0.844 and 0.7068 and 0.6666 and 0.8676 and 0.6507 and 0.862"}, {"measurement": "PF-EPSC amplitude relative to time 0", "setting": "[5]; time 21 min", "value": "0.6234 and 0.6163 and 0.8161 and 0.7457 and 0.6988 and 0.7776 and 0.5996 and 0.8293"}, {"measurement": "PF-EPSC amplitude relative to time 0", "setting": "[5]; time 22 min", "value": "0.6625 and 0.6523 and 0.8492 and 0.7192 and 0.6537 and 0.814 and 0.6019 and 0.7969"}, {"measurement": "PF-EPSC amplitude relative to time 0", "setting": "[5]; time 23 min", "value": "0.703 and 0.6662 and 0.865 and 0.711"}]}]}
